Assay results from patent US6017918A, “Phenyl glycine compounds and methods of treating atherosclerosis and restenosis” (Warner-Lambert Company, priority 1999, dated 2000).
Values joined by “and” are separate entries in the source; they are usually repeats but may differ in a detail not shown here. Identical values can stand only once.

Tests used:
[1] = system: apolipoprotein(a), [apo(a)], apolipoproteinB-100, [apoB-100], coupling reaction that generates Lp(a); assay: LPABC screen: lipoprotein(a) biochemical coupling assay, Lp(a) by ELISA; details: recombinant apo(a) + HepG2 conditioned media, 67 minutes, 37° C.; ^a = multiple tests
From the text: The lipoprotein(a), [Lp(a)], biochemical coupling assay (LPABC) is used to characterize inhibitors of the apolipoprotein(a), [apo(a)], apolipoproteinB-100, [apoB-100], coupling reaction that generates Lp(a).
Protocol Conditioned media from 293 cells (ATCC CRL-1573), permanently transfected with an apo(a) 17-kringle cDNA expression construct (pcDNA-AMP, In Vitrogen, Carlsbad, Calif.) using standard molecular biology techniques, was used as a source of recombinant apo(a). The 293 cell conditioned media containing the recombinant apo(a) is diluted 1:3 with phosphate buffered saline (PBS) and 90 μL is pipetted into each well of a 96-well plate and placed into a 37° C. incubator for 10 minutes. Twenty microliters of a 0.3 to 50 μM solution of a compound of the present invention in PBS is added to the warmed plate. Ninety microliters of HepG2 (ATCC HB-8065) cell conditioned media diluted 1:3 with PBS is added to the apo(a)/compound mixture and mixed by pipetting up and down 5 times. The reaction is incubated for 67 minutes in a 37° C. incubator. A 100 μL aliquot of the reaction is removed and assayed for its Lp(a) content by an enzyme linked immunosorbent assay (ELISA).

[2] = system: Lp(a) production (HepG2^K17 cells); assay: LPA3 screen: inhibition of Lp(a) production in HepG2^K17 cells, Lp(a) by ELISA; assay type: cell-based; details: 8 h, Lp(a) normalized for total protein, ^a = multiple tests
Method: The LPA3 screen is used to identify compounds that inhibit Lp(a) production. This screen employs permanently transfected HepG2 cells (HepG2^K17) that are generated using an apo(a) 17-kringle cDNA expression construct (pcDNA-AMP, In Vitrogen, Carlsbad, Calif.) in accordance with methods that are well-known in molecular biology.
HepG2^K17 cells are seeded in 96-well plates at a density of 75,000 cells per well in 0.25 mL of Dulbecco's Modified Eagle Media (DMEM) containing 10% fetal bovine serum (FBS). Seeded plates are incubated overnight in a 37° C., 5% CO2 /95% […] incubator. The media is removed, replaced with (1) fresh media, or (2) fresh media plus 0.3 to 50 μM of a compound of the present invention in 20 μL of PBS, and the plates returned to the incubator for 8 hours. After the additional 8 hours of incubation, Lp(a) is assayed in the media by ELISA. Cells are digested with 0.5N NaOH overnight and assayed for total protein. Lp(a) values are normalized for total protein content.

SMILES: CCNC(C(=O)OCC)c1cc(C(C)(C)C)c(O)c(C(C)(C)C)c1 (stereo not shown) [Example 51, (3,5-Di-tert-butyl-4-hydroxy-phenyl)-(ethylamino)-acetic acid ethyl ester]
- IC50 [1]: 10.9 µM

SMILES: CCOC(=O)C(NCc1cccc(O)c1)c1cc(C(C)(C)C)c(O)c(C(C)(C)C)c1 (stereo not shown) [Example 42, (3,5-Di-tert-butyl-4-hydroxy-phenyl)-(3-hydroxy-benzylamino)-acetic acid ethyl ester]
- IC50 [2]: > 74 µM
- IC50 [1]: 68.4 µM

SMILES: CCOC(=O)C(NCc1ccc(C#N)cc1)c1cc(C(C)(C)C)c(O)c(C(C)(C)C)c1 (stereo not shown) [Example 34, (4-Cyano-benzylamino)-(3,5-di-tert-butyl-4-hydroxy-phenyl)-acetic acid ethyl ester]
- IC50 [2]: > 74 µM
- IC50 [1]: 57.6 µM

SMILES: CCOC(=O)C(c1cc(C(C)(C)C)c(O)c(C(C)(C)C)c1)N(Cc1cccnc1)CC1CCCCC1 (stereo not shown) [Example 16, (Cyclohexylmethyl-pyridin-3-ylmethyl-amino)-(3,5-di-tert-butyl-4-hydroxy-phenyl)-acetic acid ethyl ester]
- IC50 [2]: 3.7 µM
- IC50 [1]: 1.48 µM

SMILES: CCOC(=O)C(NC1CCCCC1)c1cc(C(C)(C)C)c(O)c(C(C)(C)C)c1 (stereo not shown) [Example 8, (3,5-Di-tert-butyl-4-hydroxy-phenyl)-[(cyclohexyl)-amino]-acetic acid etyl ester]
- IC50 [1]: 4.16 µM

SMILES: CCOC(=O)C(NCc1cccc(C(F)(F)F)c1)c1cc(C(C)(C)C)c(O)c(C(C)(C)C)c1 (stereo not shown) [Example 48, (3,5-Di-tert-butyl-4-hydroxy-phenyl)-(3-trifluoromethyl-benzylamino)-acetic acid ethyl ester]
- IC50 [2]: > 74 µM
- IC50 [1]: 53.9 µM

SMILES: CCOC(=O)C(NCc1ccc([N+](=O)[O-])cc1)c1cc(C(C)(C)C)c(O)c(C(C)(C)C)c1 (stereo not shown) [Example 45, (3,5-Di-tert-butyl-4-hydroxy-phenyl)-(4-nitro-benzylamino)-acetic acid ethyl ester]
- IC50 [2]: > 74 µM
- IC50 [1]: 96.8 µM

SMILES: CCOC(=O)C(NCc1ccccc1F)c1cc(C(C)(C)C)c(O)c(C(C)(C)C)c1 (stereo not shown) [Example 40, (3,5-Di-tert-butyl-4-hydroxy-phenyl)-(2-fluoro-benzylamino]-acetic acid ethyl ester]
- IC50 [2]: > 74 µM
- IC50 [1]: 50.2 µM

SMILES: CCOC(=O)C(NCc1cc2c(cc1N)OCO2)c1cc(C(C)(C)C)c(O)c(C(C)(C)C)c1 (stereo not shown) [Example 31, [(6-Amino-benzo[1,3]dioxol-5-ylmethyl)-amino]-(3,5-di-tert-butyl-4-hydroxy-phenyl)-acetic acid ethyl ester]
- IC50 [2]: > 74 µM
- IC50 [1]: 21 µM

SMILES: CC(C)(C)c1cc(C(NCc2cccnc2)C(=O)O)cc(C(C)(C)C)c1O (stereo not shown) [Example 7, (3,5-Di-tert-butyl-4-hydroxy-phenyl)-[(pyridin-3-ylmethyl)-amino]-acetic acid]
- IC50 [1]: 62.2 µM

SMILES: CCOC(=O)C(NCC1CCCCC1)c1cc(C(C)CC)c(O)c(C(C)CC)c1 (stereo not shown) [Example 13, (Cyclohexylmethyl-amino)-(3,5-di-sec-butyl-4-hydroxy-phenyl)-acetic acid ethyl ester]
- IC50 [1]: 67.4 µM

SMILES: CCOC(=O)C(NCc1ccccc1OC)c1cc(C(C)(C)C)c(O)c(C(C)(C)C)c1 (stereo not shown) [Example 44, (3,5-Di-tert-butyl-4-hydroxy-phenyl)-(2-methoxy-benzylamino)-acetic acid ethyl ester]
- IC50 [2]: > 74 µM
- IC50 [1]: 54.3 µM

SMILES: CCOC(=O)C(NCc1ccccc1)c1cc(C(C)(C)C)c(O)c(C(C)(C)C)c1 (stereo not shown) [Example 5, Benzylamino-(3,5-di-tert-butyl-4-hydroxy-phenyl)-acetic acid ethyl ester]
- IC50 [2]: 76 µM
- IC50 [1]: 10.3 µM

SMILES: CCOC(=O)C(NCc1cc(OC)c(OC)c(OC)c1)c1cc(C(C)(C)C)c(O)c(C(C)(C)C)c1 (stereo not shown) [Example 15, (3,5-Di-tert-butyl-4-hydroxy-phenyl)-(3,4,5-trimethoxy-benzylamino)-acetic acid ethyl ester]
- IC50 [2]: 4.6 µM
- IC50 [1]: 10.3 µM

SMILES: CCOC(=O)C(NCc1ccoc1)c1cc(C(C)(C)C)c(O)c(C(C)(C)C)c1 (stereo not shown) [Example 41, (3,5-Di-tert-butyl-4-hydroxy-phenyl)-[(furan-3-ylmethyl)-amino]-acetic acid ethyl ester]
- IC50 [1]: 9.37 µM

SMILES: CCOC(=O)C(c1cc(C(C)(C)C)c(O)c(C(C)(C)C)c1)N1CCN(C)CC1 (stereo not shown) [Example 55, (3,5-Di-tert-butyl-4-hydroxy-phenyl)-[(N'-methyl)-N-piperazinyl]-acetic acid ethyl ester]
- IC50 [1]: 1.66 µM

SMILES: CCOC(=O)C(NCc1ccsc1)c1cc(C(C)(C)C)c(O)c(C(C)(C)C)c1 (stereo not shown) [Example 46, (3,5-Di-tert-butyl-4-hydroxy-phenyl)-[(thiophen-3-ylmethyl)-amino]-acetic acid ethyl ester]
- IC50 [2]: > 74 µM
- IC50 [1]: 34.5 µM

SMILES: CCOC(=O)C(NCc1ccc(O)c(OCC)c1)c1cc(C(C)(C)C)c(O)c(C(C)(C)C)c1 (stereo not shown) [Example 39, (3,5-Di-tert-butyl-4-hydroxy-phenyl)-(3-ethoxy-4-hydroxy-benzylamino)-acetic acid ethyl ester]
- IC50 [2]: > 74 µM
- IC50 [1]: 59.1 µM

SMILES: CCOC(=O)C(NCC1CC1)c1cc(C(C)(C)C)c(O)c(C(C)(C)C)c1 (stereo not shown) [Example 12, (Cyclopropylmethyl-amino)-(3,5-di-tert-butyl-4-hydroxy-phenyl)-acetic acid ethyl ester]
- IC50 [1]: 12.2 µM

SMILES: CCOC(=O)C(NCc1ccc(OCCN(CC)CC)cc1)c1cc(C(C)(C)C)c(O)c(C(C)(C)C)c1 (stereo not shown) [Example 37, (3,5-Di-tert-butyl-4-hydroxy-phenyl)-[4-(2-diethylamino-ethoxy)-benzylamino]-acetic acid ethyl ester]
- IC50 [1]: 29.6 µM

SMILES: CCOC(=O)C(c1cc(C(C)(C)C)c(O)c(C(C)(C)C)c1)N1CCCC1 (stereo not shown) [Example 52, (3,5-Di-tert-butyl-4-hydroxy-phenyl)-(N-pyrollidinyl)-acetic acid ethyl ester]
- IC50 [2]: 2.7 µM
- IC50 [1]: 1.55 µM

SMILES: CCOC(=O)C(NCC1CCCCC1)c1cc(-c2ccccc2)c(O)c(-c2ccccc2)c1 (stereo not shown) [Example 11, (Cyclohexylmethyl-amino)-(2'-hydroxy-[1,1';3',1"]terphenyl-5'-yl)-acetic acid ethyl ester]
- IC50 [1]: 60.2 µM

SMILES: CCOC(=O)C(NCc1cc(C(C)(C)C)c(O)c(C(C)(C)C)c1)c1cc(C(C)(C)C)c(O)c(C(C)(C)C)c1 (stereo not shown) [Example 18]
- IC50 [1]: 75 µM

SMILES: CCOC(=O)C(NCc1ccc(O)cc1)c1cc(C(C)(C)C)c(O)c(C(C)(C)C)c1 (stereo not shown) [Example 43, (3,5-Di-tert-butyl-4-hydroxy-phenyl)-(4-hydroxy-benzylamino)-acetic acid ethyl ester]
- IC50 [2]: > 74 µM

SMILES: CCOC(=O)C(NCc1cccc(Cl)c1)c1cc(C(C)(C)C)c(O)c(C(C)(C)C)c1 (stereo not shown) [Example 10, (3-Chloro-benzylamino)-(3,5-di-tert-butyl-4-hydroxy-phenyl)-acetic acid ethyl ester]
- IC50 [1]: 12.5 µM

SMILES: CCOC(=O)C(c1cc(C(C)(C)C)c(O)c(C(C)(C)C)c1)N(Cc1cccnc1)Cc1cccnc1 (stereo not shown) [Example 9, (Bis-pyridin-3-ylmethyl-amino)-(3,5-di-tert-butyl-4-hydroxy-phenyl)-acetic acid ethyl ester]
- IC50 [1]: 1.34 µM and 1.3 µM

SMILES: CCOC(=O)C(c1cc(C(C)(C)C)c(O)c(C(C)(C)C)c1)N(C)C (stereo not shown) [Example 17, (3,5-Di-tert-butyl-4-hydroxy-phenyl)-dimethylamino-acetic acid ethyl ester]
- IC50 [1]: 0.65 µM
